# Results reported in patent US20250228765A1, “TREATING KNEE JOINT PAIN BY INJECTING RESIN[…] ULTRA LOW DOSES” (Gruenenthal GmbH, priority 2024, published 2025).
# Legend:
# [1] = Human study: safety and injection site pain after intraarticular injection; type: in vivo; conditions: for subjects with severe adverse events: none related to investigational medicinal product; for incidence of treatment emergent adverse events: placebo 75.0%
# Experimental: (§1) The primary objective of this study was to compare the analgesic effects of single intraarticular injections of Resiniferatoxin (100 or 400 ng) compared to placebo, at 3 and 6 months postinjection, in participants with chronic osteoarthritic knee joint pain. Secondary objectives were to evaluate the analgesic effects of Resiniferatoxin versus placebo in terms of a responder analysis (percentage of subjects achieving ≥50% or ≥70% reduction in visual analog scale pain score) and changes in Western Ontario and McMaster Universities Arthritis Index (WOMAC) total and subscale scores (pain, physical function and stiffness). Safety and injection site pain were also evaluated.
# (§2) The study was conducted as a randomized, double-blind, placebo-controlled, single-dose trial of Resiniferatoxin. Eligible patients were aged 40 to 80 years with radiographic knee osteoarthritis (Kellgren-Lawrence Grade 2-4 in the last 3 years) and a baseline visual analog scale (0-100 mm) pain score ≥40 mm on motion in the target knee, with or without pain medication. 67 subjects were randomized to treatment with either Resiniferatoxin 100 ng (n=24) or 400 ng (n=23), or placebo (n=20), administered intraarticularly into the index knee. Intraarticular Ropivacaine (5 ml, 0.5%) was administered 15 mins before investigational medicinal product. Visual analog scale scores were used to evaluate pain on motion as the average of the last 2 days in a target knee between baseline and at 3 and 6 months post injection. Injection site pain was rated (visual analog scale) from baseline (−0.5 h) up to 3 h post intraarticular injections.
# [2] = test system: moderate to severe pain due to osteoarthritis of the knee; conditions: cited from earlier work
# [3] = test system: naturally-occurring canine osteoarthritis; conditions: single intraarticular injection of 10 μg; 7 dogs with osteoarthritis; cited from earlier work
# [4] = test system: chronic osteoarthritic knee joint pain; assay: Randomized, double-blind, placebo-controlled single-dose human study: analgesic effect of intraarticular injection; type: in vivo; conditions: for mean (SD) absolute reduction of visual analog scale score, pain on motion: 6 months, VAS 0-100 mm, placebo 28.26
# Experimental: In a human study, two pharmaceutical dosage forms according to the invention were used comprising Resiniferatoxin (100 or 400 ng) in an aqueous ethanolic solution additionally containing polysorbate 80 (Tween® 80) as surfactant, trometamol as buffer and a combination of NaCl, KCl, and CaCl2) as inorganic salts.
# as §1, §2
# [5] = Comparative study in rats: synovial fluid pharmacokinetics after intraarticular dosing; type: in vivo; conditions: male, rat, 9.6 ng, across the three formulations
# Experimental: (§3) Animals: 63 male rats (21 rats per formulation; plus an additional 3 animals as a replacement). Body weight: average 263 g (236-295 g). Dose (IA): ˜36.6 ng/kg=>9.6 ng/knee as an injection of 30 μL/knee of three various formulations with concentration 320 ng/mL. PK sampling: 7 timepoints: 10 min (animals not fully conscious between dosing and sampling), 20 min, 30 min, 1 h, 1.5 h, 2 h and 4 h (one sample per rat; 3 rats per timepoint) in plasma and synovial fluid. Tissue samples: at same time points as PK samples following tissue samples: meniscus, patella, femoral head and tibial plateau.
# Sampling of synovial fluid: A 0.5 ml 28G Insulin syringes (fixed needle, no hub) were filled with 100 μl of the saline/EDTA solution. The skin was removed from the joint and then the needle was inserted through the patellar tendon into the joint space. The solution was then injected into the joint space, the knee was flexed a couple/few times (all with the needle still in the joint) and then was pulled back on the plunger to collected the mix of saline/EDTA and synovial fluid. The lavage fluid was then put into a microcentrifuge tube, it was spun to pellet any cells/debris and then the supernatant was collected.
# [6] = Comparative study in rats: knee tissue concentrations after intraarticular dosing; type: in vivo; conditions: male, rat, knee tissues, across the three formulations
# Experimental: as §3
# [7] = single intraarticular doses 100 ng or 400 ng
smiles,measurement,setting,value
"C=C(C)[C@]12C[C@@H](C)[C@@]34O[C@](Cc5ccccc5)(O[C@@H]1[C@@H]3C=C(COC(=O)Cc1ccc(O)c(OC)c1)C[C@]1(O)C(=O)C(C)=C[C@@H]41)O2 [Resiniferatoxin, 4-hydroxy-3-methoxy-benzeneacetic acid, [(2S,3aR,3bS,6aR,9aR,9bR, 10R,11aR)-3a, 3b, 6,6a, 9a,10,11,11a-octahydro-6a-hydroxy-8,10-dimethyl-11a-(1-methylethenyl)-7-oxo-2-(phenylmethyl)-7H-2,9b-epoxyazuleno[5,4-e]-1,3-benzodioxol-5-yl]methyl ester]",subjects with severe adverse events,[1]; 100 ng group (n=24),2 subjects
same,incidence of treatment emergent adverse events,[1]; 100 ng group,62.5%
same,subjects with severe adverse events,[1]; 400 ng group (n=23),3 subjects
same,incidence of treatment emergent adverse events,[1]; 400 ng group,78.3%
same,injection site pain (procedural pain) compared to placebo,"[1]; intraarticular, 100 or 400 ng, VAS up to 3 h post injection",generally higher
same,time of peak injection site pain post-injection,[1]; moderate-severe intensity in some subjects,around 0.5 h
same,injection site pain return to baseline,[1]; post-injection,≤ 3 h
same,safety profile and tolerability,[1]; [7],good safety profile
same,sustained pain relief (anecdotal long-term follow up),[2]; one-time intraarticular dose 5-30 μg,> 365 days
same,safety as onetime intraarticular injection,[2]; up to the planned highest dose of 30 μg,demonstrated safety
same,analgesic effect,[3],significant and prolonged analgesic effect
same,"reduction in WOMAC total and subscale scores (pain, physical function and stiffness) versus placebo","[4]; 100 ng and 400 ng groups, at both 3 and 6 months",greater reduction
same,"mean (SD) absolute reduction of visual analog scale score, pain on motion",[4]; 100 ng single intraarticular injection,33.52 (22.89)
same,"mean (SD) absolute reduction of visual analog scale score, pain on motion",[4]; 400 ng single intraarticular injection,41.48 (32.57)
same,analgesia evident during the follow-up period,[4]; [7],at least 3 months
same,analgesic onset after administration,[4]; [7],within one week
same,half-life,[5]; read-out: half-life in SF (converted),~1.5 h
same,half-life,[5]; read-out: half-life in SF (range),1.07 to 1.85 h
same,half-life,"[6]; 9.6 ng, read-out: half-life in the tissues (converted)",~1.5 h
same,half-life,"[6]; other: intraarticular, 9.6 ng/knee, read-out: half-life in the tissues (converted)",~1.5 h
same,half-life,"[6]; other: intraarticular, 9.6 ng/knee, read-out: half-life in the tissues (range)",0.895 to 3.21 h
